# Columns and labels:
# K562 = experiment: Cytotoxicity on K562 cancer cell line; format: cell-based; details: Homo sapiens; K562 chronic myelogenous leukemia; 96 h; 0.01-100 μM
# Protocol: (§1) The effect of the compounds described herein on tumor cells was determined by the assay described by Latham et al., Oncogene 12:827-837 (1996). Tumor cells K562 (chronic myelogenous leukemia; leukemia cell line +ve for Bcr-Abl) or DU145 (prostate cancer) were plated in 12-well dishes at a cell density of 2.5×10^4 cells per well. The plated cells were treated 24 h. later with a DMSO solution of a compound as described herein at multiple concentrations ranging from 0.01 μM to 100 μM. The plates were examined 96 h. later under an inverted microscope, Olympus CK-2 using a 10× objective, and compound activity was noted by physical observation. When necessary, the total number of viable cells was determined by trypsinizing the wells and counting the number of viable cells, as determined by trypan blue exclusion, using a hemacytometer.
# DU145 = experiment: Cytotoxicity on DU145 cancer cell line; format: cell-based; details: Homo sapiens, DU-145; DU145 prostate cancer; 96 h; 0.01-100 μM
# Protocol: as §1
smiles,measurement,setting,value
"CNc1nc(Nc2ccc(N3CCN(C)CC3)cn2)ncc1/C=C/S(=O)(=O)c1ccc(F)cc1F [Compound 15l, (E)-5-{2-[(2,4-Difluorophenyl)sulfonyl]vinyl}-N^4-methyl-N^2-[5-(4-methylpiperazin-1-yl)pyridin-2-yl]pyrimidine-2,4-diamine]",IC50,K562,1000 to 25000 nM
same,IC50,DU145,1000 to 25000 nM
"CNc1nc(Nc2ccc3[nH]ccc3c2)ncc1/C=C/C#N [Compound 8m, 3-[2-(1H-Indol-5-ylamino)-4-(methylamino)pyrimidin-5-yl]acrylonitrile]",IC50,K562,< 1000 nM
same,IC50,DU145,< 1000 nM
"CN1CCN(c2ccc(Nc3ncc(/C=C/C#N)c(N4CCCC4)n3)cc2)CC1 [Compound 8w, 3-{2-[4-(4-Methylpiperazin-1-yl)phenylamino]-4-(pyrrolidin-1-yl)pyrimidin-5-yl}acrylonitrile]",IC50,K562,1000 to 25000 nM
same,IC50,DU145,1000 to 25000 nM
"N#C/C=C/c1cnc(Nc2ccc3[nH]ccc3c2)nc1NCC1CC1 [Compound 8u, 3-{4-[(Cyclopropylmethyl)amino]-2-[(1H-indol-5-yl)amino]pyrimidin-5-yl)acrylonitrile]",IC50,K562,< 1000 nM
same,IC50,DU145,< 1000 nM

# — US9815847B2 (Icahn School of Medicine at Mount Sinai, priority 2013, dated 2017)
